pKi: −log10 of the molar value.
Biological target: Thrombin (Homo sapiens)
Experiment: The compound was tested for its ability to inhibit thrombin.

pKi: 9.62
Structure (SMILES): Cc1nc(N)ccc1CNC(=O)Cn1c(C)cc2c(c1=O)NC(=O)[C@](C)(CC(C)C)C2 [N-(6-Amino-2-methyl-pyridin-3-ylmethyl)-2-((R)-3-isobutyl-3,6-dimethyl-2,8-dioxo-2,3,4,8-tetrahydro-1H-[1,7]naphthyridin-7-yl)-acetamide]

Source: BindingDB's records for doi:10.1016/s0960-894x(00)00170-0 (Merck Research Laboratories, 2000)
